Experimental findings from patent US20220325242A1, “IDH2 INHIBITION FOR PRODUCING T-CELLS AND B-CELLS WITH A MEMORY PHENOTYPE” (Universite de Lausanne, priority 2019, published 2022) are described below.

Experiment [1] relates to Sell (CD62L) mRNA in OT1 cells. The experiment is described as follows: Sell (CD62L) gene expression by quantitative real time RT-PCR in OT1 cells. The experiment is classed as cell-based, mouse. The protocol: Example 2. In vitro culture of splenocytes comprising CD8+ T-cells. OT1 splenocytes (as described in Example 1) were cultured for 3 days at a concentration of 10^6 cells per mL in RPMI medium (Gibco 61870-01) supplemented with 10% FCS, (Gibco 10270-106), 1% Penicillin/Streptomycin (P/S; Gibco 15070-063), 0.1% 13-mercaptoethanol, 1% HEPES (Gibco 15630-080), 1× Non-essential amino acids (Gibco 11140-035), 1% L-glutamine (Gibco 25030-081), 1 mM Sodium Pyruvate (Gibco 11360-039), 100 U/m1 hIL-2 (Glaxo-IMB) and 1 μg/ml ovalbumin N4 peptide (SIINFEKL). To evaluate the effects of IDH2 inhibition on T-cell differentiation, 5 μM of a small molecule IDH2 inhibitor (AG221 or AGI6780) or a DMSO solvent control was added during this 3-day culture period. […] At day 3 and day 7, the activation and differentiation state of CD8+ T-cells was determined by gene expression analysis, flow cytometry and extracellular metabolic flux analyses (see Example 3).
a) Gene expression analysis by quantitative real time RT-PCR RNA was isolated with the RNeasy mini kit (Qiagen) and cDNA was generated by reverse transcription (Applied Biosystems). […] Gene expression was calculated relative to […] (FW primer: 5′ aga ctg ata cat acg cct gca g 3′, RV primer: 5′ gca ggt tca aat gaa tct tca g 3′).
On the technique in general: Real-time PCR tracks product formation cycle by cycle.

The test system of experiment [2] is human CD4 T cells (CD3-positive/CD8-negative). The experiment in a line: CD62L expression in whole culture and in CD4 T cells, human culture (FIG. 16). The experiment is classed as cell-based. An excerpt:
FIG. 16: Phenotypic analysis of human bulk PBMC at day 11 post in vitro activation. (A,B) Quantification of flow cytometry analysis at day 11 post-activation showing the percentage of CD62L+ CD8 T cells in the CD3/CD8 double positive T cell population (A) or in all living cells (B) from a culture of PBMCs treated with AKTi (MK2206), IDH2i (AG221) or DMSO control. (C,D) Quantification of flow cytometry analysis at day 11 post-activation showing the percentage of CD62L+ CD4 T cells in the CD3-positive/CD8-negative T cell population (C) or in all living cells (D). (E,F) Quantification of flow cytometry analysis at day 11 post-activation showing the percentage of CD8 T cells (E, identified as CD3/CD8 double positive) and CD4 T cells (F, identified as CD3-positive/CD8-negative) in all living cells of a culture of PBMCs treated with AKTi (MK2206), IDH2i (AG221) or DMSO control. *p<0.05, compared to DMSO Graphs show mean±SEM.
The previously obtained data has undergone additional analyses, in order to obtain more insight in CD62L expression in the whole culture as well as in CD4 T cells. In the human figure A and B, we now clearly made the distinction between CD62L expression as percentage out of CD8 T cells (FIG. 16A) or out of all living cells in the culture (FIG. 16 B).
As mentioned before, about 98% of the cells in culture on day 11 are CD3-positive. Since CD3 is exclusively expressed on CD4 and CD8 T cells, we can deduct that all CD3-positive, CD8-negative must be CD4 T cells. When analyzing the CD3-pos/CD8-neg population we observed that CD62L expression is induced upon AG221 treatment, both when expressed as percentage out of CD4 T cells (FIG. 16 C) and as percentage out of total living cells (FIG. 16 D). […] This can be explained by our observation that AKT inhibition favors CD8 T cell differentiation over CD4 T cell differentiation. This ratio remains unchanged upon AG221-treatment, as compared to DMSO control (FIG. 16 E and F).

For experiment [3], the system named is transferred CD8+ CD45.1+ OT1 T-cells. The experiment in a line: Phenotype of adoptively transferred OT1 CD8+ T-cells in blood of B16-OVA tumor-bearing mice. The experiment is classed as in vivo, mouse. An excerpt: Antibody panel to determine the frequency and differentiation and activation state of adoptively transferred T-cells in the blood (see Example 6): CD8-PE-texas-Red, CD45.1-Pacific blue, CD45.2-FITC, CD127-PE, KLRG1-PE-Cy7, CD62L-APC, CD44-APC-Cy7, and CD27-PerCP-Cy5.5.
Example 5. In vivo tumor model to characterize the phenotype and efficacy of cultured CD8+ T-cells upon adoptive cell transfer. An in vivo tumor model was used to determine the efficacy of in vitro cultured CD8+ T-cells treated with an IDH2 inhibitor in eliminating cancer cells (FIG. 10). B16-OVA melanoma cells (see Example 1) were cultured in DMEM (GIBCO) with 10% FCS and 1% P/S before their subcutaneous injection into the mouse flank. Each mouse received 100′000 cells in a volume of 200 μl of PBS. 6 days after B16-OVA cell injection, tumors were measured, mice were randomized and lymphodepleted by irradiation (5 Gray). 7 days after B16-Ova cell injection, mice were adoptively transferred with activated CD45.1^+ OT-1 splenocytes. The CD45.1^+ OT-1 splenocytes had been cultured in vitro for 7 days as described in Example 2, wherein the IDH2 inhibitor was AG221, collected and purified on a Ficoll gradient to separate dead and live splenocytes. Live splenocytes, almost exclusively consisting of CD8+ T-cells (about 98%), were counted with Trypan blue stain 0.4%. 100′000 live splenocytes were transferred into CD45.2^+ host mice by tail vein injection.
Following the adoptive cell transfer (ACT), mice received a vaccination of CpG (50 μg/mouse) and N4 Ova peptide (10 μg/mouse) diluted in PBS to obtain a total volume of 100 μl/mouse, injected subcutaneously at the tail base to further stimulate the transferred cells. An additional no-ACT control group received only a PBS injection (neither cells, CpG nor peptide). Tumors were measured every 2 days with a digital caliper and the tumor volume was calculated according to the formula: V=π×[d2×D]/6, wherein d is the smallest tumor axis and D is the largest tumor axis.
Example 6. Maintenance of the CD8+ T-cell memory phenotype in vivo. Blood samples were collected at day 14 and day 18 post tumor engraftment (see Example 5). […] Transferred CD8+ T-cells were CD8^+ and CD45.1^+. Among those, MPECs were KLRG1^low and CD127^+, SLECs were KLRG1^high and CD127^−, and TCM were CD44^+ and CD62L^+.

Setting [4] is: day 14, compared to DMSO control.

`CC(C)(O)CNc1nc(Nc2ccnc(C(F)(F)F)c2)nc(-c2cccc(C(F)(F)F)n2)n1` [AG221, 2-methyl-1-[[4-[6-(trifluoromethyl)pyridin-2-yl]-6-[[2-(trifluoromethyl)pyridin-4-yl]amino]-1,3,5-triazin-2-yl]amino]propan-2-ol]: the “Sell (CD62L) mRNA expression increase” value in experiment [1] (day 3, 5 μM, versus DMSO) came out at 3 fold. For the same compound, the “Sell (CD62L) mRNA expression increase” value in experiment [1] (day 7, 5 μM day 0-3, versus DMSO) is recorded as 7 fold. Also, in experiment [2] (day 11, compared to DMSO control), the “CD8 T cell versus CD4 T cell differentiation (ratio in all living cells)” value is recorded as “unchanged”. In experiment [2] (day 11, versus DMSO), the “CD62L expression in CD3-pos/CD8-neg population, as percentage out of CD4 T cells” value was “induced” and the “CD62L+ CD4 T cells as percentage out of total living cells” value is “induced”. The “frequency of transferred T-cells” value in experiment [3] (day 14 (day 7 post ACT), cells treated in vitro before ACT, versus DMSO) is recorded as “significantly higher”. Moreover, in experiment [3] (setting [4]), the “proportion of central memory T cells (TCM) within transferred CD8+ T-cells” value was “significantly higher”, the “proportion of memory precursor effector cells (MPECs) within transferred CD8+ T-cells” value is “significantly higher” and the “proportion of short-lived effector cells (SLECs) within transferred CD8+ T-cells” value is “significantly lower”.
